The target in one assay is T1, MRSA PK (Staphylococcus aureus, UniProt Q6GG09).
T1 construct: His tag (pET-28a(+) vector) (N); made in house; host or cells: E. coli BL-21 (DE3)
Kind of assay: MRSA PK activity, continuous LDH-coupled assay. It counts as biochemical, S. aureus (MRSA strain Sanger 252). Particulars: for inhibition at 10 µM: read-out: % Inhibition MRSA PK. The procedure, abridged:
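Purified His-tagged MRSA PK (15 nM, E. coli-expressed) started reactions run up to 5 min at 30 °C. Activity was followed continuously by LDH-coupled NADH oxidation at 340 nm, with DMSO ≤1%. IC50 came from four-parameter variable-slope fits.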

The next assay concerns S. aureus ATCC 29213. The assay can be described thus: In vitro susceptibility, broth microdilution MIC. It counts as cell-based, Staphylococcus aureus. The note with it: Staphylococcus aureus. In a few lines: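 The MIC against S. aureus 29213 was determined by CLSI 2-fold serial broth microdilution in Mueller Hinton broth. Plates were incubated for 18–24 h at 37 °C and read at OD600 with background subtracted. The MIC was the lowest concentration giving complete growth inhibition versus compound-free wells.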
In general terms: Broth dilution looks for growth in wells or tubes with falling amounts of substance.

Setting [1] is: Tables 1-6, 2 mM ADP, 10 mM PEP, 15 nM PK, read-out: IC50.
[2] abbreviates: ATCC29213, Tables 1-6 and text, minimum concentration to give >98% inhibition of growth, read-out: MIC.

Molecules are shown by their SMILES. Values after ≈ are worked out from the molar mass of the structure shown. Values joined by “and” are separate entries in the source; they are usually repeats but may differ in a detail not shown here. Identical values can stand only once. Like-named read-outs stand apart in the source and are kept apart here.

T1 sequence (Q6GG09 whole entry): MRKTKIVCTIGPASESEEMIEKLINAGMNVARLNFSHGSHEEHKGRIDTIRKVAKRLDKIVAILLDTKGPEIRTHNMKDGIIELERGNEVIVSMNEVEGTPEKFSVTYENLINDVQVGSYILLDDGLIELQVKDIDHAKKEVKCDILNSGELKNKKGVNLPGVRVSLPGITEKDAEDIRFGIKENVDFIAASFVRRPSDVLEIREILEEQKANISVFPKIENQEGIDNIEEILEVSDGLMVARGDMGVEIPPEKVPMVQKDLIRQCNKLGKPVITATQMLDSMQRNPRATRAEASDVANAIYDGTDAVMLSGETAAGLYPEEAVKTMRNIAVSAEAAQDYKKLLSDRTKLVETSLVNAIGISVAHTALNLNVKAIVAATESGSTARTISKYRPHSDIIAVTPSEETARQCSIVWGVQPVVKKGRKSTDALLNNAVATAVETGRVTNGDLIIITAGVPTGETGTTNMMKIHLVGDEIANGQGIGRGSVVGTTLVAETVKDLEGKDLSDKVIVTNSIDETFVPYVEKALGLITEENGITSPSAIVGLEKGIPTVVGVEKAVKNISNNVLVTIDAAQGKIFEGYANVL

On to `Brc1ccc2cc(-c3cc4ccc(Br)cc4[nH]3)[nH]c2c1` [Compound 10b, 6,6′-Dibromo-1H,1′H-2,2′-biindole], for which the IC50 at MRSA PK (setting [1]) stood at 7 nM. In addition, on MRSA PK, the inhibition at 10 µM came out at 84.9%. In addition, the MIC in the assay on S. aureus ATCC 29213 (setting [2]) came to 16 µg/mL (≈ 41 µM).
Take `Brc1ccc2[nH]c(-c3cc4ccc(Br)cc4[nH]3)cc2c1` [Compound 10c, 5,6-Bibromo-1H,1′H-2,2′-biiindole]: at MRSA PK (setting [1]), the IC50 was 2.2 nM. Further, at MRSA PK, the inhibition at 10 µM stood at 97.8%. Further, in the assay with S. aureus ATCC 29213 (setting [2]), the MIC was determined as 0.3 µg/mL (≈ 0.769 µM).
Regarding `Brc1ccc2[nH]c(-c3cc4cc(Br)ccc4[nH]3)cc2c1` [Compound 10i, 5,5′-Bibromo-1H,1′H-2,2′-biindole], the IC50 at MRSA PK (setting [1]) is 3 nM. Further, the inhibition at 10 µM on MRSA PK amounted to 71%. Besides, the MIC with S. aureus ATCC 29213 (setting [2]) was more than 64 µg/mL.
Turning to `Brc1ccc2cc(-c3cc4cc(Br)c(Br)cc4[nH]3)[nH]c2c1` [Compound 10k, 5,6,6′-Tribromo-1H,1′H-2,2′-biindole], the IC50 at MRSA PK (setting [1]) is 1.5 nM. Besides, the inhibition at 10 µM at MRSA PK came out at 94.1%. Besides, the MIC in the assay on S. aureus ATCC 29213 (setting [2]) amounted to 0.5 µg/mL (≈ 1.07 µM).
Regarding `Brc1cc2cc(-c3cc4cc(Br)c(Br)cc4[nH]3)[nH]c2cc1Br` [Compound 10l, 5,5′,6,6′-Tetrabromo-1H,1′H-2,2′-biindole], the IC50 on MRSA PK (setting [1]) is 2 nM. Also, the inhibition at 10 µM on MRSA PK amounted to 97.6%. Moreover, the MIC in the assay with S. aureus ATCC 29213 (ATCC29213) is more than 64 µg/mL.
For the compound `Cn1c(-c2cc3ccc(Br)cc3[nH]2)cc2cc(Br)ccc21` [Compound 12a, 5,6′-Dibromo-1-methyl-1H,1′H-2,2′-biindole], the IC50 at MRSA PK (setting [1]) was 1 nM. Besides, the inhibition at 10 µM on MRSA PK was found to be 99%. The MIC in the assay on S. aureus ATCC 29213 (setting [2]) is more than 64 µg/mL.
The like results for `OCCn1c(-c2cc3ccc(Br)cc3[nH]2)cc2cc(Br)ccc21` [Compound 17, 2-(5,6′-Dibromo-1H, 1′H-[2,2′-biindol]-1-yl)ethanol] were, in that order, 1.3 nM, 101% and 2 µg/mL (≈ 4.61 µM).
With `CN1CCN(CCn2c(-c3cc4ccc(Br)cc4[nH]3)cc3cc(Br)ccc32)CC1` [Compound 20a, 5,6′-Dibromo-1-(2-(4-methylpiperazin-1-yl)ethyl)-1H,1′H-2,2′-biindole], at MRSA PK (setting [1]), the IC50 turned out to be 2 nM. Also, the inhibition at 10 µM on MRSA PK turned out to be 100%. Besides, in the assay on S. aureus ATCC 29213 (setting [2]), the MIC is 4 µg/mL (≈ 7.75 µM).
`Brc1ccc2c(c1)cc(-c1cc3ccc(Br)cc3[nH]1)n2CCN1CCOCC1` [Compound 20b, 4-(2-(5,6′-dibromo-1H,1′H-[2,2′-biindol]-1-yl)ethyl)morpholine]: the 50% inhibitory concentration (IC50) at MRSA PK (setting [1]) came to 1.2 nM. Also, on MRSA PK, the inhibition at 10 µM was determined as 101%. Further, in the assay on S. aureus ATCC 29213 (setting [2]), the MIC is more than 64 µg/mL.
The like results for `Brc1ccc2cc(-c3nc4ccccc4s3)[nH]c2c1` [Compound 22a, 2-(6-Bromo-1H-indol-2-yl)benzo[d]thiazole] were, in that order, 152 nM, 89.8% and more than 64 µg/mL.
`Brc1ccc2cc(-c3cc4ccccc4o3)[nH]c2c1` [Compound 22b, 2-(Benzofuran-2-yl)-6-bromo-1H-indole]: the IC50 on MRSA PK (setting [1]) is 108 nM. Moreover, on MRSA PK, the inhibition at 10 µM was determined as 95.9%. In the assay on S. aureus ATCC 29213 (setting [2]), the MIC was more than 64 µg/mL.
`Brc1ccc2[nH]c(C#Cc3cc4ccc(Br)cc4[nH]3)cc2c1` [Compound 25c, 6-Bromo-2-((5-bromo-1H-indol-2-yl)ethynyl)-1H-indole]: the IC50 at MRSA PK (setting [1]) came to 4.7 nM. On MRSA PK, the inhibition at 10 µM is 86.3%. In the assay with S. aureus ATCC 29213 (setting [2]), the MIC stood at 16 µg/mL (≈ 38.6 µM).
In the same order, the values of `Brc1ccc2cc(/C=C/c3cc4ccccc4[nH]3)[nH]c2c1` [Compound 27a, (E)-2-(2-(1H-indol-2-yl)vinyl)-6-bromo-1H-indole] are 4.5 nM, 93.4% and more than 64 µg/mL.
As to `Brc1ccc2cc(CCc3cc4ccc(Br)cc4[nH]3)[nH]c2c1` [Compound 28a, 1,2-bis(6-bromo-1H-indol-2-yl)ethane], the 50% inhibitory concentration (IC50) on MRSA PK (setting [1]) is 6 nM and 6.5 nM. For the same compound, on MRSA PK, the inhibition at 10 µM was determined as 93.4%. In the assay with S. aureus ATCC 29213 (setting [2]), the MIC is more than 64 µg/mL.
As for `COc1cc(-c2cc3ccccc3[nH]2)ccc1-c1cc2ccc(Br)cc2[nH]1` [Compound 33e, 2-(4-(1H-indol-2-yl)-2-methoxyphenyl)-6-bromo-1H-indole], on MRSA PK (setting [1]), the IC50 amounted to 2.1 nM. Besides, the inhibition at 10 µM on MRSA PK is 62.2%. Further, the MIC in the assay with S. aureus ATCC 29213 (setting [2]) is more than 64 µg/mL.
With `O=C(c1c(-c2cc3cc(Cl)ccc3[nH]2)[nH]c2cc(Br)ccc12)C(F)(F)F` [Compound 178, 1-(6-bromo-5′-chloro-1H,1′H-[2,2′-biindol]-3-yl)-2,2,2-trifluoroethan-1-one], on MRSA PK, the IC50 is less than 50 nM. Moreover, the MIC in the assay on S. aureus ATCC 29213 (ATCC29213, S. aureus (ATCC29213), Table 9, read-out: MIC (μg/mL) H) amounted to 1 µg/mL (≈ 2.26 µM).

By IC50 is commonly meant the midpoint of a concentration-inhibition curve. In general, inhibition refers to the relative decrease from the control value, in per cent.

For the origin of these results see patent US20170216252A1, “ANTI-BACTERIAL PYRUVATE KINASE MODULATOR COMPOUNDS, COMPOSITIONS, USES AND METHODS” (SIMON FRASER UNIVERSITY, priority 2014, published 2017).
